Assay results from publication PMC11130353, “Using host-mimicking conditions and a murine cutaneous abscess model to identify synergistic antibiotic combinations effective against Pseudomonas aeruginosa” (Frontiers in Cellular and Infection Microbiology, 2024).
≈ marks a conversion by molar mass, not a printed value. Peptide text beside a SMILES is read from it.

What was measured:
[1] = system: P. aeruginosa LESB58; test: microbe, parasite or virus in culture; assay type: cell-based, Pseudomonas aeruginosa; details: 20-24 h
Method: (§1) For susceptibility testing under standard conditions, bacteria were cultured in Muller Hinton Broth MHB (Fort Richards Laboratories). […] Further susceptibility testing was also conducted in MHB supplemented with FBS (5% v/v) and DMEM supplemented with glucose (1% w/v) and MHB (10% v/v).
The minimum inhibitory concentration (MIC) of each antibiotic was determined using the broth microdilution method in 96-well plates. […] Briefly, antibiotics were two-fold serially diluted in MHB or TCM prior to adding 1 × 10^6 CFU mL^-1 bacteria. […] The MIC was recorded as the lowest antibiotic concentration with no visible growth and the median value of at least three biological replicates reported.

[2] = system: P. aeruginosa LESB58-lux; test: In vitro synergy, checkerboard assay (luminescence readout); assay type: cell-based, Pseudomonas aeruginosa; details: TCM, LESB58-lux; for FICI, drug combined with CAZ / FICI, drug combined with CZA: FICI <= 0.5 indicates synergy
Method: (§2) For susceptibility testing under standard conditions, bacteria were cultured in Muller Hinton Broth MHB (Fort Richards Laboratories). Host mimicking conditions in vitro were simulated using tissue culture medium (TCM) consisting of Dulbecco’s modified Eagle medium (DMEM; Gibco #11965) supplemented with FBS (Moregate Biotech) (5% v/v) and glucose (1% w/v). Further susceptibility testing was also conducted in MHB supplemented with FBS (5% v/v) and DMEM supplemented with glucose (1% w/v) and MHB (10% v/v).
(§3) The P. aeruginosa LESB58.lux strain was used for in vitro synergy experiments with azithromycin in MHB and all antibiotic combinations in TCM to determine bacterial growth (as visual inspection and absorbance measurements were unreliable). Synergy was determined using the checkerboard method ([Berenbaum, 1978]; [Pletzer and Hancock, 2018]) in at least triplicate. Each antibiotic was two-fold serially diluted in sterile water before transferring to a 96-well plate containing 1 × 10^6 CFU mL^-1 bacteria in MHB or TCM. Plates were incubated at 37°C for 22-24 hours. The MIC alone or in combination was recorded as the lowest antibiotic concentration with no visible growth. For experiments using the LESB58.lux strain no visible growth was defined as an at least 95% reduction compared to the no antibiotic growth control in luminescence detected using a ClarioStar plate reader. The fractional inhibitory concentration index (FICI) was calculated as [(MICA in combination)/MICA] + [(MICB in combination)/MICB]. FICI values of 0.5 or below indicated synergy, while values above 0.5 up to and including 1 were taken to indicate additivity. FICI values above 1 indicate indifference or antagonism ([Odds, 2003]).

[3] = 50 μL injected subcutaneously, skin inspected next day
Method: Mice used in this study were female Swiss Webster aged approximately 6-7 weeks and sourced from the University of Otago Biomedical Research Facility. […] Briefly, the fur on the back of each mouse was removed by shaving and chemical depilation. Antibiotics were tested for skin toxicity by injecting 50 μL of antibiotic suspension subcutaneously into naïve mice, and subsequent inspection of the skin for inflammation on the next day. P. aeruginosa LESB58 was grown to mid-log phase in dYT broth, washed twice in sterile PBS (Gibco, pH 7.4), and resuspended in PBS to ~1 x 10^8 CFU per 50 μL inoculum. The bacterial suspension (50 μL) was injected subcutaneously into the right side of the dorsum, followed one hour later by 50 μL of antibiotic treatment injected directly into the infected area. […] Combination treatments were administered as a single 50 μL injection containing both antibiotics. The concentration of each antibiotic in the combination was the same as when it was used alone. Progression of the infection was monitored daily, and abscess dimensions were measured on day three using a calliper. On day three, abscess tissue and pus were excised, homogenized in sterile PBS using SPEX SamplePrep 1600 MiniG for five minutes and bacterial CFU counts determined by serial dilution.

[4] = system: P. aeruginosa LESB58; test: In vitro synergy, checkerboard assay; assay type: cell-based, Pseudomonas aeruginosa; details: MHB
Method: as §2, §3

[5] = system: P. aeruginosa LESB58; test: Murine high density subcutaneous skin abscess model; assay type: in vivo, Pseudomonas aeruginosa; details: Colistin
Method: Mice used in this study were female Swiss Webster aged approximately 6-7 weeks and sourced from the University of Otago Biomedical Research Facility. […] The subcutaneous abscess infection model was performed as previously described ([Pletzer et al., 2017]) with a higher inoculum. Briefly, the fur on the back of each mouse was removed by shaving and chemical depilation. Antibiotics were tested for skin toxicity by injecting 50 μL of antibiotic suspension subcutaneously into naïve mice, and subsequent inspection of the skin for inflammation on the next day. P. aeruginosa LESB58 was grown to mid-log phase in dYT broth, washed twice in sterile PBS (Gibco, pH 7.4), and resuspended in PBS to ~1 x 10^8 CFU per 50 μL inoculum. The bacterial suspension (50 μL) was injected subcutaneously into the right side of the dorsum, followed one hour later by 50 μL of antibiotic treatment injected directly into the infected area. […] Combination treatments were administered as a single 50 μL injection containing both antibiotics. The concentration of each antibiotic in the combination was the same as when it was used alone. Progression of the infection was monitored daily, and abscess dimensions were measured on day three using a calliper. On day three, abscess tissue and pus were excised, homogenized in sterile PBS using SPEX SamplePrep 1600 MiniG for five minutes and bacterial CFU counts determined by serial dilution. In this model, synergy was defined as being a significant difference between the combination treated group and the amalgamated group of single drug treated animals ([Fantin and Carbon, 1992]; [Pletzer et al., 2018]).
Statistical analysis was performed using GraphPad Prism 9.5.1. Bacterial CFU and abscess size data from in vivo experiments was analysed by Kruskal-Wallace test with Dunn’s correction for multiple comparisons. The data was considered significant when p-values were below 0.05 or 0.01 as indicated.

[6] = system: P. aeruginosa PAO1; test: Minimum inhibitory concentration, broth microdilution; assay type: cell-based, Pseudomonas aeruginosa
Method: as §1
The minimum inhibitory concentration (MIC) of each antibiotic was determined using the broth microdilution method in 96-well plates. […] Briefly, antibiotics were two-fold serially diluted in MHB or TCM prior to adding 1 × 10^6 CFU mL^-1 bacteria. Plates were incubated at 37°C for 22-24 hours. The MIC was recorded as the lowest antibiotic concentration with no visible growth and the median value of at least three biological replicates reported.

[7] = tigecycline and tobramycin groups, compared to the vehicle control, day 3

CC[C@H](C)CCCCC(=O)N[C@@H](CCN)C(=O)N[C@H](C(=O)N[C@@H](CCN)C(=O)N[C@H]1CCNC(=O)[C@H]([C@@H](C)O)NC(=O)[C@H](CCN)NC(=O)[C@H](CCN)NC(=O)[C@H](CC(C)C)NC(=O)[C@@H](CC(C)C)NC(=O)[C@H](CCN)NC1=O)[C@@H](C)O [CST, colistin] (HELM PEPTIDE1{[CC[C@H](C)CCCCC(=O)[*:2]].[Dab].T.[Dab].[Dab].[Dab].[dL].L.[Dab].[Dab].T}$PEPTIDE1,PEPTIDE1,5:R3-11:R2$$$V2.0)
MIC in MHB ([1]; MHB): 3.13 µg/mL (≈ 2.68 µM)
MIC in TCM ([1]; TCM (DMEM + 1% glucose + 5% FBS)): 12.5 µg/mL
Fold decrease in CAZ MIC, drug combined with CAZ [2]: 8
Fold decrease in CZA MIC, drug combined with CZA [2]: 4
Fold decrease in other MIC, drug combined with CAZ [2]: 4
Fold decrease in other MIC, drug combined with CZA [2]: 4
FICI, drug combined with CAZ [2]: 0.38
FICI, drug combined with CZA [2]: 0.5
FICI, drug combined with CAZ ([2]; listed as colistin): synergised
FICI, drug combined with CZA ([2]; listed as colistin): synergised
Highest tolerated dose tested [3]: 2 mg/mL
Toxic (visible skin irritation, inflammation, blood vessels, swelling) [3]: 5 mg/mL
Fold decrease in CAZ MIC, drug combined with CAZ [4]: 4
Fold decrease in CZA MIC, drug combined with CZA [4]: 4
Fold decrease in other MIC, drug combined with CAZ [4]: 8
Fold decrease in other MIC, drug combined with CZA [4]: 8
FICI, drug combined with CAZ ([4]; FICI <= 0.5 indicates synergy): 0.38
Area of dermoncecrosis, Mean ([5]; tigecycline and tobramycin groups (shared vehicle, CAZ and CZA mice), female Swiss Webster mice, 50 μL s.c. 1 h after infection, day 3, CAZ or CZA 50, CST 1.25, TGC 2.5, TOB 2 mg/mL, vehicle 0.9% saline): 38.6 mm^2
Area of dermoncecrosis, % reduction [5, 7]: 58.9%
CFU per abscess, Fold change [5, 7]: -107.4
Area of dermoncecrosis, % reduction ([5]; tigecycline and tobramycin groups, compared to the vehicle control, day 3, listed as colistin): 59%
CFU per abscess, Geometric mean ([5]; tigecycline and tobramycin groups, day 3): 2.3 × 10^6 CFU per abscess
Fold reduction of bacterial load (CFU) relative to vehicle ([5]; tigecycline, tobramycin experiments): ~107
MIC in MHB ([6]; MHB): 2.5 µg/mL (≈ 2.14 µM)
Fold change TCM vs MHB (MIC) ([6]; MIC in TCM vs MIC in MHB): 10
MIC in TCM ([6]; TCM): 25 µg/mL (≈ 21.4 µM)
